The values that follow come from patent publication US8815813B2, “Methods for treating immune-mediated Dengue Fever infections and antibody-dependent enhancement of Dengue Fever infections, including Dengue Hemorrhagic Fever and Dengue Shock Syndrome” (priority 2008, dated 2014).

For one assay, the system named is FcγIIIa. In kind it is binding.
For a further assay, the system named is FcγIIb. Format: binding.
A further assay relates to human C1q. In words: Reverse ELISA: inhibition of PAP immune complex binding to C1q coated plates. On the technique in general: In an ELISA, binding on a coated surface is turned into a signal by an enzyme label.
The next assay relates to FcγIIb/c. In kind it is binding.
The next assay has as its system FcγIIIb (NA2). In kind it is binding.
In another assay the test system is recombinant TNF-α. Format: binding.
For a further assay, the system named is recombinant human FcγIIa. Format: binding. The protocol: The results of 1:250 and 1:500 serial dilutions (ADE was most evident at serum dilutions of 1:250 to 1:500) of the DENV-IgG-IC were tested against inhibition of DENV-IgG-IC binding to huFcγRIIa coated microtiter wells. Results using huFcγRIIa coated wells with either a 1:250 dilution of DENV-IgG-IC with no inhibitor, a 1:250 dilution of DENV-IgG-IC with SEQ ID NO:20, a 1:500 dilution of DENV-IgG-IC with no inhibitor, and a 1:500 dilution of DENV-IgG-IC with SEQ ID NO:20 are shown in Table 5.

The test system of assay [1] is Dengue Virus recombinant NS1. In kind it is binding. As to conditions: summary of Table 6. The protocol: PAP IC were incubated with either no peptide or with SEQ ID NO:20 for one hour.
A further assay deals with Fcγ1. Format: binding.
The next assay concerns FcγIIa (H131 allele). Format: binding.
In another assay the test system is FcγIIa (R131 allele). Put plainly: Reverse ELISA: inhibition of PAP-IC binding to FcγIIa (R131 allele) coated plates. As to conditions: PAP pre-incubated with peptide 1 h; positive control 1.599.

Like-named read-outs stand apart in the source and are kept apart here. No end group written: not given here.

FcγIIIb (NA2), sequence (O75015 17-200): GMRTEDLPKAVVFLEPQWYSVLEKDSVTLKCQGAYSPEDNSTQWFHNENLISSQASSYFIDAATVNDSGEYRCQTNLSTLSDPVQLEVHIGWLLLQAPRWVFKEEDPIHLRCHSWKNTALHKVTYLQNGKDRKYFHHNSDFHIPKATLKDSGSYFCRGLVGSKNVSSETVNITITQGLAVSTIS

Consider “APPCAWHLGELVWCT (cysteine pairing not given here) [SEQ ID NO:14]”, for which the “OD405 FcγIIIa” value with FcγIIIa is recorded as 0.530. In addition, the “OD405 FcγIIb” value in the assay with FcγIIb was 0.562.
“APPCARHLGELVWCT (cysteine pairing not given here) [SEQ ID NO:16]”: in the assay on human C1q, the “inhibition of C1q binding (ranking in words)” value is “next best result”. Further, the “OD405 FcγIIIa” value with FcγIIIa is on record as 0.709. Further, the “OD405 FcγIIb” value in the assay with FcγIIb stood at 0.768.
For the substance “Ala-Pro-Pro-Asp-Cys-Ala-Trp-His-Leu-Gly-Glu-Leu-Val-Trp-Cys-Thr [SEQ ID NO:20]”, the “FcγIIb/c (read at 405 nm)” value with FcγIIb/c stood at 0.266. Further, in the assay on FcγIIIb (NA2), the “% inhibition of IC binding, FcγIIIb (NA2)” value turned out to be 91% and the “FcγIIIb (NA2) (read at 405 nm)” value came out at 0.266. For the same substance, in the assay on recombinant TNF-α, the OD405 is listed as 0.086 and the “inhibition of PAP-IC binding to recombinant TNFα coated plates (in words)” value is recorded as “marked ability to inhibit the binding”. For the same substance, the “inhibition of C1q binding (ranking in words)” value with human C1q is on record as “greatest inhibition of C1q binding”. For the same substance, the “DENV-IgG-IC binding to huFcγRIIa coated wells (ELISA reading)” value in the assay on recombinant human FcγIIa (1:250 dilution of DENV2 (16681)-DENV convalescent IgG-IC, no peptide control 2.885) was found to be 0.265. In the assay on recombinant human FcγIIa (1:500 dilution of DENV2 (16681)-DENV convalescent IgG-IC, no peptide control 2.362), the “DENV-IgG-IC binding to huFcγRIIa coated wells (ELISA reading)” value stood at 0.289. The “inhibition of DENV2-anti-DENV convalescent IgG-IC binding to FcγIIa coated plates (in words)” value in the assay on recombinant human FcγIIa (summary of Table 5) was “marked ability to inhibit binding”. Moreover, the “inhibition of PAP-IC binding to recombinant DENV NS1 coated plates (in words)” value in assay [1] is given as “marked ability to inhibit the binding”. Also, in the assay with Fcγ1, the “% inhibition of IC binding, Fcγ1” value amounted to 89% and the “Fcγ1 (read at 405 nm)” value stood at 0.264. In the assay on FcγIIIa, the “OD405 FcγIIIa” value amounted to 0.670. For the same substance, the “OD405 FcγIIb” value with FcγIIb was determined as 0.496. In the assay with FcγIIa (H131 allele), the “FcγIIa* (H131 allele) (read at 405 nm)” value was found to be 0.209.
Turning to “Asp-Cys-Ala-Phe-His-Leu-Gly-Glu-Leu-Val-Trp-Cys-Thr [SEQ ID NO:3]”, the “OD405 FcγIIIa” value in the assay on FcγIIIa is recorded as 0.810. Moreover, in the assay with FcγIIb, the “OD405 FcγIIb” value came out at 0.510.
As for “APPCAFHLGELVWCT (cysteine pairing not given here) [SEQ ID NO:18]”, the “OD405 FcγIIIa” value in the assay on FcγIIIa was determined as 0.880. In the assay with FcγIIb, the “OD405 FcγIIb” value is on record as 0.380.
Regarding “Asp-Cys-Ala-Trp-His-Leu-Gly-Glu-Leu-Val-Trp-Cys-Thr [SEQ ID NO:2]”, in the assay on FcγIIIa, the “OD405 FcγIIIa” value is given as 0.741. For the same substance, the “OD405 FcγIIa (R131 allele)” value with FcγIIa (R131 allele) was 0.561. The “OD405 FcγIIb” value in the assay on FcγIIb is 0.532.
